The source made the active and inactive calls. The calls are words filed in the database; no cut-off is given here.
Key:
[1] = target: T1, Leucine--tRNA ligase, cytoplasmic (Homo sapiens, UniProt Q9P2J5); assay: Inhibition of LRS-dependent mTORC1 activation in HEK293 cells assessed as reduction in leucine-induced mTORC1-mediated S6 Kinase phosphorylation at 200 uM pretreated before leucine stimulation measured after 10 mins by immunoblot analysis; type: cell-based
Target sequence in this assay (Q9P2J5 whole entry, looked up): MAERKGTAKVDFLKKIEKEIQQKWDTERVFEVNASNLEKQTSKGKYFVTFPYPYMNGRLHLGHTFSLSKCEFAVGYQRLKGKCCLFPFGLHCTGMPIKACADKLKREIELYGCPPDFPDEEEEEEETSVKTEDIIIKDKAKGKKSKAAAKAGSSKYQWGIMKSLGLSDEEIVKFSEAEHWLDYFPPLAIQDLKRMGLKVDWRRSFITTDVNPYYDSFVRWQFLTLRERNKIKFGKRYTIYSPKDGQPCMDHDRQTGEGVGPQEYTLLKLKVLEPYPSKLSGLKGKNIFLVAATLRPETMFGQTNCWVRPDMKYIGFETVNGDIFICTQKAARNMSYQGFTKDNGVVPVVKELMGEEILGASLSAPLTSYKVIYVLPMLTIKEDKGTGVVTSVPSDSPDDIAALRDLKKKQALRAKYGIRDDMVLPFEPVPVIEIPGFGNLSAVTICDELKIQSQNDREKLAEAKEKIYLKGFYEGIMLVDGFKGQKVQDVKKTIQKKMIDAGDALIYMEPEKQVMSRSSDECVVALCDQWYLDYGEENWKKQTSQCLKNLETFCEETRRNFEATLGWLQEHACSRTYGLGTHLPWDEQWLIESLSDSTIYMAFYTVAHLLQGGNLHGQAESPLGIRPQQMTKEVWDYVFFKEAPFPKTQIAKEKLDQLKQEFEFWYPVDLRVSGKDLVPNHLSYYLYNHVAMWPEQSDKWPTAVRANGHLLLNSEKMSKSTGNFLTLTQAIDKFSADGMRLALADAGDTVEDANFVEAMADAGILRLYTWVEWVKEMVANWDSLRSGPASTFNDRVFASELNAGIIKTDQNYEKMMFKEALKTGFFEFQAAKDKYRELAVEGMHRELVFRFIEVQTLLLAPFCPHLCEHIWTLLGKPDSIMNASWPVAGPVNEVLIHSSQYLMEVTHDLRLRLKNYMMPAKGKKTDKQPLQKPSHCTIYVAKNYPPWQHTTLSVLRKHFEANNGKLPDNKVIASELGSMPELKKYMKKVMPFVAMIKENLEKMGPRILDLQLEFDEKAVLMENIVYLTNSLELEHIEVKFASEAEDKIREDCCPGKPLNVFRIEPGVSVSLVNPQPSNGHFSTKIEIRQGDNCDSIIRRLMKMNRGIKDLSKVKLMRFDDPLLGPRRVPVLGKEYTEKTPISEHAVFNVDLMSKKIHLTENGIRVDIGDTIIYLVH

SK-HEP1 = assay: Growth inhibition of human SKHEP1 cells incubated for 72 hrs by sulforhodamine B assay; type: functional, cell-based; details: SK-HEP1, 72 h
MDA-MB-231 = assay: Growth inhibition of human MDA-MB-231 cells incubated for 72 hrs by sulforhodamine B assay; type: functional, cell-based; details: MDA-MB-231, 72 h
A549 = assay: Growth inhibition of human A549 cells incubated for 72 hrs by sulforhodamine B assay; type: functional, cell-based; details: A549, 72 h
HCT-116 = assay: Growth inhibition of human HCT116 cells incubated for 72 hrs by sulforhodamine B assay; type: functional, cell-based; details: HCT-116, 72 h
[2] = target: T1, Leucine--tRNA ligase, cytoplasmic; assay: Inhibition of LRS-dependent mTORC1 activation in HEK293 cells assessed as reduction in leucine-induced mTORC1-mediated S6 Kinase phosphorylation pretreated before leucine stimulation measured after 10 mins by immunoblot analysis; type: cell-based
SNU-638 = assay: Growth inhibition of human SNU638 cells incubated for 72 hrs by sulforhodamine B assay; type: functional, cell-based; details: SNU-638, 72 h
MRC5 = assay: Growth inhibition of human MRC5 cells incubated for 72 hrs by sulforhodamine B assay; type: cell-based; details: MRC5, 72 h
[3] = target: T1, Leucine--tRNA ligase, cytoplasmic; assay: Inhibition of LRS canonical enzyme activity in HEK293 cells assessed as effect on enzyme-mediated aminoleucylation; type: cell-based
Target sequence in this assay (Q9P2J5 whole entry): as the sequence (Q9P2J5 whole entry, looked up) above

K562 = assay: Growth inhibition of human K562 cells incubated for 72 hrs by sulforhodamine B assay; type: functional, cell-based; details: K562, 72 h
[4] = target: T1, Leucine--tRNA ligase, cytoplasmic; assay: Inhibition of LRS-dependent mTORC1 activation in HEK293 cells assessed as reduction in leucine-induced mTORC1-mediated S6 Kinase phosphorylation at 100 nM pretreated before leucine stimulation measured after 10 mins by immunoblot analysis; type: cell-based
Target sequence in this assay (Q9P2J5 whole entry, looked up): as above

[5] = target: T1, Leucine--tRNA ligase, cytoplasmic; assay: Inhibition of LRS-dependent mTORC1 activation in HEK293 cells assessed as reduction in leucine-induced mTORC1-mediated S6 Kinase phosphorylation at 20 to 200 uM pretreated before leucine stimulation measured after 10 mins by immunoblot analysis; type: cell-based
Target sequence in this assay (Q9P2J5 whole entry, looked up): as above

| SMILES | inhibition of S6K phosphorylation (qualitative) [1] | IC50 (SK-HEP1) [nM] | IC50 (MDA-MB-231) [µM] | IC50 (A549) [µM] | IC50 (HCT-116) [µM] | IC50 (SNU-638) [µM] | IC50 (MRC5) [µM] | IC50 (K562) [nM] | further results |
| --- | --- | --- | --- | --- | --- | --- | --- | --- | --- |
| CC(C)C[C@H](O)C(=O)NS(=O)(=O)OC[C@H]1O[C@@H](n2cnc3c(N)nc(I)nc32)[C@H](O)[C@@H]1O | Active |  |  |  |  |  |  |  |  |
| COc1ccc(CNS(=O)(=O)c2ccc(NC(=O)[C@@H](N)CC(C)C)cc2)cc1OC | Active | 3070 | 5.44 | 5.29 | 3.96 | 6.26 | > 20 | 4480 | IC50 [2]: 44.9 µM; inhibition [2]: Dose-dependent effect; IC50 [3]: > 800 µM |
| CO[C@H]1C[C@@H]2CC[C@@H](C)[C@@](O)(O2)C(=O)C(=O)N2CCCC[C@H]2C(=O)O[C@H]([C@H](C)C[C@@H]2CC[C@@H](O)[C@H](OC)C2)CC(=O)[C@H](C)/C=C(\C)[C@@H](O)[C@@H](OC)C(=O)[C@H](C)C[C@H](C)/C=C/C=C/C=C/1C |  |  |  |  |  |  |  |  | inhibition [4]: Active |
| COc1ccc(CNS(=O)(=O)c2ccc(NC(=O)[C@@H](O)CC(C)C)cc2)cc1OC | Active |  |  |  |  |  |  |  |  |
| COc1cc([C@@H]2c3cc4c(cc3[C@@H](O[C@@H]3O[C@@H]5CO[C@@H](C)O[C@H]5[C@H](O)[C@H]3O)[C@H]3COC(=O)[C@H]23)OCO4)cc(OC)c1O [ETOPOSIDE] |  | 630 | 1.53 | 0.3 | 1.06 | 1.05 | 11.7 | 760 |  |
| COc1ccc(CNS(=O)(=O)c2ccc(N3C(=O)N[C@@H](CC(C)C)C3=O)cc2)cc1OC |  | 2440 | 5.65 | 5.54 | 4.28 | 5.22 | > 20 | 2860 | IC50 [2]: 26.4 µM; inhibition [2]: Dose-dependent effect; IC50 [3]: > 800 µM |
| COc1ccc(CNS(=O)(=O)c2ccc(NC(=O)[C@@H](O)[C@H](O)C(C)C)cc2)cc1OC | Active |  |  |  |  |  |  |  |  |
| COc1ccc(CNS(=O)(=O)c2ccc(N3C[C@H](CC(C)C)NC3=O)cc2)cc1OC |  |  |  |  |  |  |  |  | inhibition [5]: inactive |
